Legend:
[1] = Inhibition of CutC in Escherichia coli MS 200-1 assessed as reduction in TMA formation incubated for 3.5 hrs under anaerobic condition in presence of d9-choline by LC-MS-MS analysis
[2] = Inhibition of TMA formation in human fecal suspension by LC-MS/MS; assay type: functional, tissue-based, Feces
[3] = Inhibition of Klebsiella sp. MS 92-3 CutC assessed as TMA formation by LC-MS/MS; set-up: species or system Klebsiella pneumoniae
[4] = Inhibition of Escherichia coli MS 69-1 CutC assessed as TMA formation by LC-MS/MS
[5] = Inhibition of Clostridium sporogenes CutC assessed as TMA formation by LC-MS/MS
[6] = Inhibition of Proteus mirabilis CutC assessed as TMA formation by LC-MS/MS
[7] = target: T1, Choline trimethylamine-lyase (Desulfovibrio alaskensis, UniProt Q30W70); assay: Inhibition of Desulfovibrio desulfuricans (strain G20) CutC assessed as reduction in TMA by spectrophotometry
T1 sequence (Q30W70 whole entry): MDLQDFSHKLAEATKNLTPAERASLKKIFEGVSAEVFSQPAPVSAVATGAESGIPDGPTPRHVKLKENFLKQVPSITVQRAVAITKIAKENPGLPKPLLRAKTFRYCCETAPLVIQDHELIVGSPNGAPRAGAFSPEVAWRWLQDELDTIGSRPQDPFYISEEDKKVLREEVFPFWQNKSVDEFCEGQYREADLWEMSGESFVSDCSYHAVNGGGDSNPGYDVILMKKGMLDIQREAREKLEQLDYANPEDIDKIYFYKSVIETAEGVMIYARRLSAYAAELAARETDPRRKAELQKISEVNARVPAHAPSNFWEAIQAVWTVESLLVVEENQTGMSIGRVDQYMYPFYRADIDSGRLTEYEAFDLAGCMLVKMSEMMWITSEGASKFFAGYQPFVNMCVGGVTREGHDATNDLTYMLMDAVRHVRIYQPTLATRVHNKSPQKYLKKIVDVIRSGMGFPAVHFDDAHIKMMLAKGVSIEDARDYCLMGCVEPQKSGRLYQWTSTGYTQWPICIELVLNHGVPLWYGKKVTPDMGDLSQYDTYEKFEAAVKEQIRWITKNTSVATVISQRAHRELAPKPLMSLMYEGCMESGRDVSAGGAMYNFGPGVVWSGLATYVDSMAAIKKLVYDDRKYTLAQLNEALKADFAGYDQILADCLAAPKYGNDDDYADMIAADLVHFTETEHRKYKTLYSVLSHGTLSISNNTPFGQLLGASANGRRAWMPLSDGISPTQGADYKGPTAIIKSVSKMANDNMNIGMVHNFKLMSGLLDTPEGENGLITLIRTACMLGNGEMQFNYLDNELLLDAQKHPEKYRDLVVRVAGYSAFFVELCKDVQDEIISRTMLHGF

| SMILES | IC50 [1] | also measured |
| --- | --- | --- |
| CN1CCC(O)CC1 | 1600 µM |  |
| CN1CC=C[C@H](O)C1 | 9.8 µM | IC50 [2]: 60 µM; IC50 [3]: 4 µM; IC50 [4]: 22 µM; IC50 [5]: 12 µM; IC50 [6]: 0.092 mM |
| CN1CCCC(=O)C1 | 27000 µM | IC50 [7]: > 10000 µM |
| CN1CCC(O)C1 (stereo not drawn) | 6300 µM |  |
| CC1=CC(O)CN(C)C1 (stereo not drawn) | 920 µM |  |
| OC1C=CCN(C2CCC2)C1 (stereo not drawn) | 190 µM | IC50 [7]: 200 µM |
| [2H]C1(O)C=CCN(C)C1 (stereo not drawn) | 30 µM |  |
| CN1CC=CC(O)C1 (stereo not drawn) | 10 µM |  |
| CC(=O)OC1C=CCN(C)C1 (stereo not drawn) | 1800 µM |  |
| C[N+]1(C)CC=CC(O)C1 (stereo not drawn) | 7.6 µM |  |
| CCCN1CC=CC(O)C1 (stereo not drawn) | 200 µM |  |
| CN1CC=C[C@@H](O)C1 | 31 µM |  |
| OC1C=CCOC1 (stereo not drawn) | 80 µM |  |
| OC1C=CCN(Cc2ccccc2)C1 (stereo not drawn) | 370 µM |  |
| OC1C=CCCC1 (stereo not drawn) | 260 µM |  |
| CN1CCCC(O)CC1 (stereo not drawn) | 760 µM |  |
| C[N+](C)(C)CC=O [BETAINE ALDEHYDE] |  | IC50 [2]: 1270 µM; IC50 [3]: 212 µM; IC50 [4]: 465 µM; IC50 [5]: 1000 µM; IC50 [6]: 2.49 mM |

— ChEMBL document CHEMBL4725445, “Discovery of a Cyclic Choline Analog That Inhibits Anaerobic Choline Metabolism by Human Gut Bacteria” (ACS Med Chem Lett, 2020)
